Reference: publication PMC12116161, “An Elastase Inhibitor ShSPI from Centipede Attenuates Bleomycin-Induced Pulmonary Fibrosis” (Toxins, 2025)
Where a SMILES comes first, the peptide text is derived from it. Bridges are numbered along the chain shown (N, C = ends).

Key:
ICR healthy mice [1] = assay: Single administration toxicity study: hematological examination; assay type: in vivo; settings: single airway spray, day 14 post-dose, EDTA whole blood, automated hematology analyzer, mean ± s
Protocol: (§1) Specific pathogen-free (SIPF) grade ICR healthy mice (with an equal number of males and females, procured from Hunan Slaughter King Laboratory Animal Co., Changsha, China) were randomly divided into four experimental groups and received ShSPI via airway spray at doses of 0 mg/kg (control), 40 mg/kg, 80 mg/kg, or 160 mg/kg in a single administration. Following treatment, the mice were monitored for a 14-day observation period. On the fourteenth day, blood plasma samples were collected for precise measurement and analysis of hematological and biochemical parameters. The specific process is as follows.
(§2) On day 14 post-dose, approximately 1.7–2.0 mL of whole blood was collected for hematological and biochemical analyses. Hematological parameters were assessed using an automated hematology analyzer, while biochemical parameters were evaluated with an automated biochemistry analyzer. Prior to blood collection, all mice were fasted for at least 12 h. For hematological analysis, 200 μL of whole blood was immediately transferred into EDTA-containing tubes. For biochemical analysis, 1.5 mL of whole blood was placed into serum separator tubes without anticoagulant and centrifuged to isolate serum.

ICR healthy mice [2] = assay: Single administration toxicity study: blood biochemistry and electrolytes; assay type: in vivo; settings: single airway spray, day 14 post-dose, serum, automated biochemistry analyzer, mean ± s
Protocol: as §1, §2

[3] = 80 mg/kg ShSPI, n = 6, * p < 0.05 vs blank control
[4] = 40 mg/kg ShSPI, n = 6, * p < 0.05 vs blank control

## CC[C@H](C)[C@@H]1NC(=O)[C@H](C)NC(=O)[C@@H]2CCCN2C(=O)[C@@H]2CSSC[C@H](NC(=O)[C@H](CO)NC(=O)[C@H](CC(N)=O)NC(=O)[C@H](CO)NC(=O)[C@H](Cc3ccc(O)cc3)NC(=O)[C@H](CCSC)NC(=O)[C@H](CCCNC(=N)N)NC(=O)CNC(=O)[C@H](Cc3ccccc3)NC(=O)[C@H](CCC(=O)O)NC(=O)[C@H](CC(=O)O)NC(=O)[C@H](Cc3ccccc3)NC(=O)[C@H](C(C)C)NC(=O)[C@@H]3CCCN3C(=O)[C@H](CCC(N)=O)NC(=O)[C@H](Cc3ccc(O)cc3)NC1=O)C(=O)N[C@@H](CCC(=O)O)C(=O)N[C@@H](CCSC)C(=O)N[C@@H](CCC(N)=O)C(=O)N[C@@H](CCCNC(=N)N)C(=O)N[C@@H](C)C(=O)N[C@@H](CCCNC(=N)N)C(=O)N[C@H](C(=O)N[C@@H](CC(C)C)C(=O)N[C@@H](CCCNC(=N)N)C(=O)NCC(=O)O)CSSC[C@H](N)C(=O)N1CCC[C@H]1C(=O)N[C@@H](CCC(N)=O)C(=O)N[C@@H](C(C)C)C(=O)N2 [ShSPI] (H-CPQVCPAIYQPVFDEFGRMYSNSCEMQRARCLRG-OH; disulfide 1-31, 5-24; N-terminus and C-terminus assumed)
ICR healthy mice [1]; 40 mg/kg ShSPI, n = 6
  Bas: 0.02 ± 0.01 10^9/L
  Bas%: 0.35 ± 0.28%
  Eos: 0.09 ± 0.05 10^9/L
  HCT: 36.98 ± 1.32%
  HGB: 123.50 ± 5.64 g/L
  Lym: 6.40 ± 2.49 10^9/L
  Lym%: 78.20 ± 2.18%
  MCH: 15.86 ± 0.43 pg
  MCHC: 333.50 ± 3.98 g/L
  MCV: 47.56 ± 0.95 fL
  MPV: 5.35 ± 0.18 fL
  Mon: 0.28 ± 0.13 10^9/L
  Mon%: 3.35 ± 0.74%
  Neu: 1.41 ± 0.69 10^9/L
  Neu%: 16.78 ± 1.90%
  PCT: 0.71 ± 0.04%
  PDW: 15.21 ± 0.17
  PLT: 1326.50 ± 494.34 10^9/L
  RBC: 7.78 ± 0.23 10^12/L
  RDW-CV: 12.70 ± 0.76%
  RDW-SD: 26.68 ± 1.26 fL
  WBC: 8.22 ± 3.30 10^9/L
ICR healthy mice [1]; 80 mg/kg ShSPI, n = 6
  Bas: 0.03 ± 0.04 10^9/L
  Bas%: 0.56 ± 0.60%
  Eos: 0.22 ± 0.20 10^9/L
  Eos%: 3.10 ± 2.15%
  HCT: 35.93 ± 2.11%
  HGB: 120.33 ± 6.83 g/L
  Lym: 4.66 ± 1.68 10^9/L
  Lym%: 68.93 ± 6.78%
  MCH: 16.08 ± 0.40 pg
  MCHC: 335.33 ± 6.28 g/L
  MCV: 47.95 ± 0.38 fL
  MPV: 5.48 ± 0.48 fL
  Mon: 0.38 ± 0.05 10^9/L
  Neu: 1.35 ± 0.40 10^9/L
  Neu%: 21.23 ± 5.92%
  PCT: 0.69 ± 0.09%
  PDW: 15.33 ± 0.10
  PLT: 1272 ± 206.81 10^9/L
  RBC: 7.49 ± 0.34 10^12/L
  RDW-CV: 12.18 ± 0.22%
  RDW-SD: 25.75 ± 1.03 fL
  WBC: 6.66 ± 2.04 10^9/L
ICR healthy mice [1]; [3]
  Mon%: 6.16 ± 1.76 * %
ICR healthy mice [1]; 160 mg/kg ShSPI, n = 6
  Bas: 0.02 ± 0.01 10^9/L
  Bas%: 0.20 ± 0.12%
  Eos: 0.21 ± 0.19 10^9/L
  Eos%: 1.85 ± 1.23%
  HCT: 37.81 ± 1.30%
  HGB: 126.66 ± 4.36 g/L
  Lym: 8.63 ± 2.79 10^9/L
  Lym%: 75.90 ± 6.54%
  MCH: 16.05 ± 0.40 pg
  MCHC: 335.33 ± 4.13 g/L
  MCV: 47.86 ± 65 fL
  MPV: 5.21 ± 0.21 fL
  Mon: 0.42 ± 0.21 10^9/L
  Mon%: 3.58 ± 0.74%
  Neu: 2.23 ± 1.28 10^9/L
  Neu%: 18.46 ± 5.30%
  PCT: 0.78 ± 0.07%
  PDW: 15.21 ± 0.07
  PLT: 1511.2 ± 178.44 10^9/L
  RBC: 7.90 ± 0.31 10^12/L
  RDW-CV: 12.83 ± 0.74%
  RDW-SD: 27.20 ± 1.81 fL
  WBC: 11.5 ± 4.13 10^9/L
ICR healthy mice [2]; 40 mg/kg ShSPI, n = 6
  ALBII: 29.13 ± 1.27 g/L
  ALP: 85.25 ± 18.91 U/L
  ALT: 44.95 ± 22.02 U/L
  AST: 97.20 ± 13.33 U/L
  CK: 236.4 ± 108.76 U/L
  CREA-S: 21.70 ± 4.99 µmol/L
  GLO2: 17.67 ± 0.80 g/L
  Glu-G: 9.93 ± 1.48 mmol/L
  T-Bil-VII: 1.73 ± 0.80 µmol/L
  TC: 2.09 ± 0.33 mmol/L
  TG: 1.35 ± 0.50 mmol/L
  TPII: 46.81 ± 1.48 g/L
  UREA: 17.07 ± 3.07 mmol/L
  calcium binding: 1.23 ± 0.011 mmol/L
  chloride ion: 106.80 ± 1.14 mmol/L
  potassium ion: 4.82 ± 0.27 mmol/L
  r-GT: 0.38 ± 0.20 U/L
  sodium ion: 152.39 ± 1.75 mmol/L
ICR healthy mice [2]; [4]
  calcium ionomer: 1.23 ± 0.01 * mmol/L
  total calcium: 2.48 ± 0.02 * mmol/L
ICR healthy mice [2]; 80 mg/kg ShSPI, n = 6
  ALBII: 28.05 ± 1.53 g/L
  ALP: 94.75 ± 22.33 U/L
  ALT: 38.58 ± 7.12 U/L
  AST: 92.95 ± 20.45 U/L
  CK: 175.4 ± 69.9 U/L
  CREA-S: 23.10 ± 2.24 µmol/L
  GLO2: 17.21 ± 0.82 g/L
  Glu-G: 9.71 ± 1.69 mmol/L
  T-Bil-VII: 1.47 ± 0.43 µmol/L
  TC: 2.21 ± 0.61 mmol/L
  TG: 1.21 ± 0.32 mmol/L
  TPII: 45.26 ± 1.62 g/L
  UREA: 14.79 ± 3.07 mmol/L
  calcium binding: 1.24 ± 0.05 mmol/L
  chloride ion: 106.5 ± 1.26 mmol/L
  potassium ion: 5.01 ± 0.46 mmol/L
  r-GT: 0.00 ± 1.01 U/L
  sodium ion: 150.7 ± 1.89 mmol/L
ICR healthy mice [2]; [3]
  calcium ionomer: 1.24 ± 0.05 * mmol/L
  total calcium: 2.49 ± 0.10 * mmol/L
ICR healthy mice [2]; 160 mg/kg ShSPI, n = 6
  ALBII: 30.1 ± 1.28 g/L
  ALP: 98.6 ± 27.17 U/L
  ALT: 39.80 ± 7.79 U/L
  AST: 80.6 ± 16.79 U/L
  CK: 156.4 ± 75.0 U/L
  CREA-S: 19.1 ± 3.98 µmol/L
  GLO2: 18.0 ± 1.06 g/L
  Glu-G: 9.24 ± 1.33 mmol/L
  TC: 2.26 ± 0.33 mmol/L
  TG: 1.23 ± 0.35 mmol/L
  TPII: 48.2 ± 1.79 g/L
  UREA: 13.6 ± 4.00 mmol/L
  calcium binding: 1.28 ± 0.03 mmol/L
  calcium ionomer: 1.28 ± 0.03 mmol/L
  chloride ion: 106.5 ± 1.44 mmol/L
  potassium ion: 4.68 ± 0.30 mmol/L
  r-GT: 0.31 ± 0.35 U/L
  sodium ion: 152.9 ± 1.60 mmol/L
ICR healthy mice [2]; 160 mg/kg ShSPI, n = 6, * p < 0.05 vs blank control
  total calcium: 2.5 ± 0.06 * mmol/L
